Source: EP0384421A2, “Use of PAF antagonists in the treatment of pathologic changes of the blood gas” (BOEHRINGER INGELHEIM KG, priority 1989, dated 1990)
Several values for one entry are separate records, joined by “and”; a condition that tells them apart may be missing. Equal entries are not always repeated.

Tests used:
[1] = tested on: PAF; assay: Acid-base balance and blood gases in arterial blood of rats after PAF and a PAF antagonist; type: in vivo, Ratten; conditions: for BE / HCO3 / O2sat / TCO2 / pCO2 / pO2 / ph: PAF 10 µg/kg i.v., rats; for pH-Wert-Erniedrigung: pH decrease caused by PAF 10 µg/kg i.v.
[2] = tested on: Methylparathion; set-up: species or system Ratten; conditions: in vivo
Excerpt: Die Bestimmung der Partialdrucke der nachfolgend aufgeführten Blutgase sowie die Bestimmung des pH-Wertes des Blutes sind ein Indiz dafür, daß eine Behandlungsmethode bei Organophosphorvergiftungen positiv anspricht.
In der Tabelle I sind der pH-Wert und die Partialdrucke von CO₂ und O₂ aufgeführt. Die Ergebnisse sind Mittelwerte die aus Versuchen an 6 bis 15 Ratten je Experiment erhalten wurden. […] Die Konzentration von Atropin und Web 2086 ist in der Tabelle angegeben und bezieht sich auf mg/kg i.v. Die Reihenfolge der Applikation ist in Spalte 1 der Tabelle angegeben. Die Blutentnahme erfolgt 5 Minuten nach der letzten Substanzgabe. Die Blutgas-Messung erfolgte mit einem "Corning-Blood-Gas-Analyser 178".

[3] = PAF antagonist 100 ug/kg i.v., arterial blood
[4] = PAF antagonist 1000 ug/kg i.v., arterial blood

**Q.** What does the source list for `Cc1nnc2n1-c1sc3c(c1C(c1ccccc1Cl)=NC2)CC(C(=O)N1CCOCC1)C3` (centres unmarked) [WEB 2170, 6-(2-Chlorphenyl)-8,9-dihydro-1-methyl-8-[(4-morpholinyl)carbonyl]-4H,7H-cyclopenta[4,5]thieno[3,2-f][1,2,4]triazolo[4,3-a][1,4]diazepin]?
**A.** BE [1, 3]: 0.18; HCO3 [1, 3]: 22.9; O2sat [1, 3]: 97.1; TCO2 [1, 3]: 23.9; pCO2 [1, 3]: 33.8; pO2 [1, 3]: 89.8; ph [1, 3]: 7.44; pH-Wert-Erniedrigung [1]: verhindert

**Q.** How did the BE ([1]; 10 mg/kg p.o.) turn out when `Cc1nnc2n1-c1sc(Br)cc1C(c1ccccc1Cl)=NC2` [Brotizolam, reference compound] was run?
**A.** -18,95

**Q.** What about the HCO3 ([1]; 10 mg/kg p.o.) of the same compound?
**A.** 7,88

**Q.** What about the O2sat ([1]; 10 mg/kg p.o.) of the same compound?
**A.** 95,48

**Q.** What about the TCO2 ([1]; 10 mg/kg p.o.) of the same compound?
**A.** 8,57

**Q.** What about the pCO2 ([1]; 10 mg/kg p.o.) of the same compound?
**A.** 22,22

**Q.** What about the pO2 ([1]; 10 mg/kg p.o.) of the same compound?
**A.** 104,47

**Q.** What about the ph ([1]; 10 mg/kg p.o.) of the same compound?
**A.** 7,17

**Q.** What about the BE ([1]; 30 mg/kg p.o.) of the same compound?
**A.** -3,32

**Q.** What about the HCO3 ([1]; 30 mg/kg p.o.) of the same compound?
**A.** 20,97

**Q.** What about the O2sat ([1]; 30 mg/kg p.o.) of the same compound?
**A.** 94,43

**Q.** What about the TCO2 ([1]; 30 mg/kg p.o.) of the same compound?
**A.** 22,05

**Q.** What about the pCO2 ([1]; 30 mg/kg p.o.) of the same compound?
**A.** 35,53

**Q.** And the pO2 ([1]; 30 mg/kg p.o.)?
**A.** 87,42

**Q.** What about the ph ([1]; 30 mg/kg p.o.) of the same compound?
**A.** 7,37

**Q.** What about the BE ([1]; 100 mg/kg p.o.) of the same compound?
**A.** -7,94

**Q.** And the HCO3 ([1]; 100 mg/kg p.o.)?
**A.** 16,38

**Q.** And the O2sat ([1]; 100 mg/kg p.o.)?
**A.** 95,18

**Q.** And the TCO2 ([1]; 100 mg/kg p.o.)?
**A.** 17,34

**Q.** What about the pCO2 ([1]; 100 mg/kg p.o.) of the same compound?
**A.** 30,60

**Q.** What about the pO2 ([1]; 100 mg/kg p.o.) of the same compound?
**A.** 87,92

**Q.** What about the ph ([1]; 100 mg/kg p.o.) of the same compound?
**A.** 7,33

**Q.** What about the “Blutgas-stabilisierende Wirkung” value ([1]; 10,30 und 100 mg/kg p.o., same experimental set-up) of the same compound?
**A.** dosisabhängig

**Q.** What about the “durch PAF-verursachte pH Wert-Verminderung” value ([1]; 30 und 100 mg/kg) of the same compound?
**A.** verhindert

**Q.** What about the “Abnahme des CO₂-Partialdruckes und Abnahme des Basenüberschusses” value ([1]; 30 und 100 mg/kg, PAF-induced) of the same compound?
**A.** verhindert

**Q.** With `CN1C2CCC1CC(OC(=O)C(CO)c1ccccc1)C2` (racemic) [Atropin, reference compound] as the compound, how does the pH [2] read?
**A.** 7,43 and 7,21 and 6,97

**Q.** Which results are given for `Cc1nnc2n1-c1sc(CCC(=O)N3CCOCC3)cc1C(c1ccccc1Cl)=NC2` [WEB 2086, 4-(2-Chlorphenyl)-9-methyl-2-[3-(4-morpholinyl)-3-propanon-1-yl]-6H-thieno[3,2-f][1,2,4]triazolo[4,3-a][1,4]diazepin]?
**A.** Blutgaswerte bei Phosphorsäureestervergiftungen [2]: positiv beeinflußt; PCO2 [2]: 73,0 and 58,9; PO2 [2]: 51,7 and 61,9; pH [2]: 7,25 and 7,07; BE [1, 4]: -5.40; HCO3 [1, 4]: 19.8; O2sat [1, 4]: 91.5; TCO2 [1, 4]: 20.9; pCO2 [1, 4]: 38.2; pO2 [1, 4]: 72.8; ph [1, 4]: 7.32; pH-Wert-Erniedrigung [1]: verhindert

**Q.** Which BE [1, 4] does the source give for `Cc1nnc2n1-c1sc3c(c1C(c1ccccc1Cl)=NC2)CC(CN1CCOCC1)C3` (centres unmarked) [STY 2108] here?
**A.** 0.42

**Q.** And the HCO3 [1, 4]?
**A.** 24.5

**Q.** What about the O2sat [1, 4] of the same compound?
**A.** 96.8

**Q.** And the TCO2 [1, 4]?
**A.** 25.8

**Q.** And the pCO2 [1, 4]?
**A.** 39.5

**Q.** What about the pO2 [1, 4] of the same compound?
**A.** 90.4

**Q.** And the ph [1, 4]?
**A.** 7.40

**Q.** And the pH-Wert-Erniedrigung [1]?
**A.** verhindert
